The values below are quoted from earlier work in patent US20140371322A1, “Phenoxybenzamine Transdermal Composition” (PROFESSIONAL COMPOUNDING CENTERS OF AMERICA, priority 2013, published 2014).

For data set [1] the following is noted: weak base.

Regarding `CC(COc1ccccc1)N(CCCl)Cc1ccccc1` (centres unmarked) [phenoxybenzamine], the “octanol/water log P partition coefficient” value is 4.6. The “pka (dissociation constant)” value in data set [1] was 6.58.
